From paper PMC11723358, “Nelumbo nucifera Petals Ameliorate Depressive-like Symptom and Cognitive Deficit in Unpredictable Chronic Mild Stress Mouse Model” (Nutrients, 2024)

What was measured:
Assay in all cases: fluorescence, kynuramine to 4-hydroxyquinoline
Type in all cases: biochemical
MAO-B [1] = biological target: T1, MAO-B (Homo sapiens, UniProt P27338); settings: read-out: % inhibition at 1000 μM
T1 construct: gene MAOB; human recombinant enzyme
T1 sequence (P27338 2-520): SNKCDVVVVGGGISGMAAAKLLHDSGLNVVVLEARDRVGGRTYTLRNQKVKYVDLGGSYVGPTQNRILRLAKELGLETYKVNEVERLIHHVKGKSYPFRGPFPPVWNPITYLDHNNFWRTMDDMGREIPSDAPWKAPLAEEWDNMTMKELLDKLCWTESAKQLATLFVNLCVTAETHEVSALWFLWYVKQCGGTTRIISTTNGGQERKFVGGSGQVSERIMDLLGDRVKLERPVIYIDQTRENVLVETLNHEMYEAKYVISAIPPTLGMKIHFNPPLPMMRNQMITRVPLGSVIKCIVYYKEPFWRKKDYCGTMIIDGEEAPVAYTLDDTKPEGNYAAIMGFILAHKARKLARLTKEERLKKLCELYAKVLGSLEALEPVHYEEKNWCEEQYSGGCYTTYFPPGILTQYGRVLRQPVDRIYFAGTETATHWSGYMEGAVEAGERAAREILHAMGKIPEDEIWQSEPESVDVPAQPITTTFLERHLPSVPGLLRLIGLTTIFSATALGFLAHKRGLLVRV
Excerpt: fluorescence, kynuramine to 4-hydroxyquinoline on MAO-B

MAO-A = biological target: T2, MAO-A (Homo sapiens, UniProt P21397)
T2 construct: gene MAOA; human recombinant enzyme
T2 sequence (P21397 1-527): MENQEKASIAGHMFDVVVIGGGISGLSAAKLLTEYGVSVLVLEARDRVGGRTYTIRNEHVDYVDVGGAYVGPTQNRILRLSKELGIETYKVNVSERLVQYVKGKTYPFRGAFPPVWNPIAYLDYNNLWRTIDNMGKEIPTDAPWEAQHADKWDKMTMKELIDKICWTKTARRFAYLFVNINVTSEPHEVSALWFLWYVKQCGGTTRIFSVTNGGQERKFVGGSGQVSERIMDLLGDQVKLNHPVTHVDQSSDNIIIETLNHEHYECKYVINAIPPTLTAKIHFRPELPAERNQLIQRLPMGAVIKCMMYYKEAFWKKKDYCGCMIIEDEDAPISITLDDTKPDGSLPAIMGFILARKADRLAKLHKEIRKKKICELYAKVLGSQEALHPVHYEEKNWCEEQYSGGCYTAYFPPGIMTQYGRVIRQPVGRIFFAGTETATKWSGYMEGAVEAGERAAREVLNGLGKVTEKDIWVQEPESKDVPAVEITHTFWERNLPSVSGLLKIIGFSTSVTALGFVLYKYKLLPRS

MAO-B [2] = biological target: T1, MAO-B

| inhibition at 1000 µM (MAO-B [1]) [%] | IC50 (MAO-A) [µM] | IC50 (MAO-B [2]) [µM] | Structure (SMILES) |
| --- | --- | --- | --- |
| 20.7 ± 1.8 | 2.8 ± 0.13 | – | CC[C@H](CC[C@@H](C)[C@H]1CC[C@H]2[C@@H]3CC=C4C[C@@H](O)CC[C@]4(C)[C@H]3CC[C@]12C)C(C)C [compound 5, β-sitosterol] |
| – | 578.4 ± 2.01 | 860.7 ± 3.7 | O=c1c(O[C@@H]2O[C@H](CO)[C@H](O)[C@H](O)[C@H]2O)c(-c2ccc(O)cc2)oc2cc(O)cc(O)c12 [compound 2, trifolin] |
| – | 108.9 ± 0.21 | 242.2 ± 0.78 | C[C@@H]1O[C@@H](O[C@H]2[C@H](Oc3c(-c4ccc(O)cc4)oc4cc(O)cc(O)c4c3=O)O[C@H](CO)[C@@H](O)[C@@H]2O)[C@H](O)[C@H](O)[C@H]1O [compound 3, kaempferol-3-neohesperidoside] |
| 43.5 ± 5.2 | 584 ± 11.8 | – | OCCc1ccc(O[C@@H]2O[C@H](CO)[C@@H](O)[C@H](O)[C@H]2O)cc1 [compound 4, icariside D2] |
